Measurements from patent US10577363B2, “Substituted piperidine compounds” (EPIZYME, INC., priority 2014, dated 2020).

The compounds below were run against SMYD3 (Homo sapiens (Human), UniProt Q9H7B4) (assay: SMYD3 biochemical assay (SPA, 3H-SAM methylation of MEKK2 protein substrate)). Details: read-out: SMYD3 Biochem IC50 (μM)*.
From the text: S-adenosylmethionine (SAM), S-adenosylhomocysteine (SAH), Tris, Tween20, dimethylsulfoxide (DMSO), bovine skin gelatin (BSG), and Tris(2-carboxyethyl)phosphine hydrochloride solution (TCEP) were purchased from Sigma-Aldrich at the highest level of purity possible. ^3H-SAM was purchase from American Radiolabeled Chemicals with a specific activity of 80 Ci/mmol. 384-well opaque white OptiPlates and SPA beads (Perkin Elmer, catalog # RPNQ0013) were purchased from PerkinElmer.
N-terminally GST-tagged MEKK2 (MAP3K2) protein corresponding to reference sequence AAF63496.3 was purchased from Life Technologies (catalog # PV4010). This protein was expressed in High Five insect cells and purified to >85% purity. Protein identity was confirmed by MS/MS analysis after proteolytic digestion. The protein sequence used was:
Full-length human SMYD3 isoform 1 (BAB86333) was inserted into a modified pET21b plasmid containing a His6 tag and TEV and SUMO cleavage sites.
E. coli (BL21 codonplus RIL strain, Stratagene) were transformed with plasmid pEPZ553 by mixing competent cells and plasmid DNA and incubating on ice for 30 minutes followed by heat shock at 42° C. for 1 minute and cooling on ice for 2 minutes. Transformed cells were grown and selected on LB agar with 100 μg/mL ampicillin and 17 μg/mL chloramphenicol at 37° C. overnight. A single clone was used to inoculate 200 mL of LB medium with 100 μg/mL ampicillin and 17 μg/mL chloramphenicol and incubated at 37° C. on an orbital shaker at 180 rpm. Once in log growth, the culture was diluted 1:100 into 2 L of LB medium and grown until OD600 was about 0.3 after which the culture was incubated at 15° C. and 160 rpm. Once OD600 reached about 0.4, IPTG was added to a final concentration of 0.1 mM and the cells were grown overnight at 15° C. and 160 rpm. Cells were harvested by centrifugation at 8000 rpm, for 4 minutes at 4° C. and stored at −80° C. for purification.
The column was washed with Buffer B (Buffer A plus 20 mM imidazole) and His-tagged SMYD3 was eluted with Buffer C (Buffer A plus 300 mM imidazole). The His tag, TEV and SUMO cleavage sites were removed generating native SMYD3 by addition of ULP1 protein at a ratio of 1:200 (ULP1:SMYD3). Imidazole was removed by dialysis overnight in Buffer A. The dialyzed solution was applied to a second Nickel column and the native SMYD3 protein was collected from the column flow-through. The flow-through was dialyzed in Buffer D (25 mM Tris, 5% glycerol, 5 mM β-mercaptoethanol, 50 mM NaCl, pH7.8) and ULP1 was removed using a Q sepharose fast flow column.
General Procedure for SMYD3 Enzyme Assays on MEKK2 Protein Substrate
The assays were all performed in a buffer consisting of 25 mM Tris-Cl pH 8.0, 1 mM TCEP, 0.005% BSG, and 0.005% Tween 20, prepared on the day of use. […] DMSO (1 ul) was added to Columns 11, 12, 23, 24, rows A-H for the maximum signal control and 1 ul of SAH, a known product and inhibitor of SMYD3, was added to columns 11, 12, 23, 24, rows I-P for the minimum signal control. A cocktail (40 ul) containing the SMYD3 enzyme was added by Multidrop Combi (Thermo-Fisher). The compounds were allowed to incubate with SMYD3 for 30 min at room temperature, then a cocktail (10 ul) containing SAM and MEKK2 was added to initiate the reaction (final volume=51 ul). […] The assays were stopped by the addition of non-radiolabeled SAM (10 ul) to a final concentration of 100 uM, which dilutes the ^3H-SAM to a level where its incorporation into MEKK2 is no longer detectable. Radiolabeled MEKK2 was detected using a scintillation proximity assay (SPA). 10 uL of a 10 mg/mL solution of SPA beads in 0.5 M citric acid was added and the plates centrifuged at 600 rpm for 1 min to precipitate the radiolabeled MEKK2 onto the SPA beads. The plates were then read in a PerkinElmer TopCount plate reader to measure the quantity of ^3H-labeled MEKK2 as disintegrations per minute (dpm) or alternatively, referred to as counts per minute (cpm).

IC50 [µM]	Structure (SMILES)
1.64	NCCC(=O)NC[C@@H](Cc1ccc(O)c(I)c1)C(=O)N1CCC(NC(=O)c2cc(C3CC3)on2)CC1 [compound 34, (R)-N-(1-(3-(3-aminopropanamido)-2-(4-hydroxy-3-iodobenzyl)propanoyl)piperidin-4-yl)-5-cyclopropylisoxazole-3-carboxamide]
0.117	NCCC(=O)NC[C@H](Cc1ccc(O)c(I)c1)C(=O)N1CCC(NC(=O)c2cc(C3CC3)on2)CC1 [compound 35, (S)-N-(1-(3-(3-aminopropanamido)-2-(4-hydroxy-3-iodobenzyl)propanoyl)piperidin-4-yl)-5-cyclopropylisoxazole-3-carboxamide]
9.41	NCC(=O)NC[C@@H](Cc1ccc(O)c(I)c1)C(=O)N1CCC(NC(=O)c2cc(C3CC3)on2)CC1 [compound 36, (R)-N-(1-(3-(2-aminoacetamido)-2-(4-hydroxy-3-iodobenzyl)propanoyl)piperidin-4-yl)-5-cyclopropylisoxazole-3-carboxamide]
0.623	NCC(=O)NC[C@H](Cc1ccc(O)c(I)c1)C(=O)N1CCC(NC(=O)c2cc(C3CC3)on2)CC1 [compound 37, (S)-N-(1-(3-(2-aminoacetamido)-2-(4-hydroxy-3-iodobenzyl)propanoyl)piperidin-4-yl)-5-cyclopropylisoxazole-3-carboxamide]
0.518	Cc1ccc(C[C@H](CN)C(=O)N2CCC(NC(=O)c3cc(C4CC4)on3)CC2)cc1O [compound 38, (R)-N-(1-(3-amino-2-(3-hydroxy-4-methylbenzyl)propanoyl)piperidin-4-yl)-5-cyclopropylisoxazole-3-carboxamide]
14	Cc1ccc(C[C@@H](CN)C(=O)N2CCC(NC(=O)c3cc(C4CC4)on3)CC2)cc1O [compound 39, (S)-N-(1-(3-amino-2-(3-hydroxy-4-methylbenzyl)propanoyl)piperidin-4-yl)-5-cyclopropylisoxazole-3-carboxamide]
3.16	NCCCN1CCC(NC(=O)c2cc(C3CC3)on2)CC1 [compound 40, N-(1-(3-aminopropyl)piperidin-4-yl)-5-cyclopropylisoxazole-3-carboxamide]
8.39	C[C@@H](N)C(=O)NC[C@@H](Cc1ccc(O)c(I)c1)C(=O)N1CCC(NC(=O)c2cc(C3CC3)on2)CC1 [compound 42, N-(1-((R)-3-((R)-2-aminopropanamido)-2-(4-hydroxy-3-iodobenzyl)propanoyl)piperidin-4-yl)-5-cyclopropylisoxazole-3-carboxamide]
1.23	C[C@@H](N)C(=O)NC[C@H](Cc1ccc(O)c(I)c1)C(=O)N1CCC(NC(=O)c2cc(C3CC3)on2)CC1 [compound 43, N-(1-((S)-3-((R)-2-aminopropanamido)-2-(4-hydroxy-3-iodobenzyl)propanoyl)piperidin-4-yl)-5-cyclopropylisoxazole-3-carboxamide]
13.8	C[C@@H](N)CC(=O)NC[C@@H](Cc1ccc(O)c(I)c1)C(=O)N1CCC(NC(=O)c2cc(C3CC3)on2)CC1 [compound 44, N-(1-((R)-3-((R)-3-aminobutanamido)-2-(4-hydroxy-3-iodobenzyl)propanoyl)piperidin-4-yl)-5-cyclopropylisoxazole-3-carboxamide]
0.479	C[C@@H](N)CC(=O)NC[C@H](Cc1ccc(O)c(I)c1)C(=O)N1CCC(NC(=O)c2cc(C3CC3)on2)CC1 [compound 45, N-(1-((S)-3-((R)-3-aminobutanamido)-2-(4-hydroxy-3-iodobenzyl)propanoyl)piperidin-4-yl)-5-cyclopropylisoxazole-3-carboxamide]
14.9	C[C@H]1CN(C(=O)[C@H](N)Cc2ccc(O)cc2)CCC1NC(=O)c1cc(C2CC2)on1 (stereo partly drawn) [compound 47, N-((3S)-1-(D-tyrosyl)-3-methylpiperidin-4-yl)-5-cyclopropylisoxazole-3-carboxamide]
14.9	C[C@@H]1CN(C(=O)[C@H](N)Cc2ccc(O)cc2)CCC1NC(=O)c1cc(C2CC2)on1 (stereo partly drawn) [compound 48, N-((3R)-1-(D-tyrosyl)-3-methylpiperidin-4-yl)-5-cyclopropylisoxazole-3-carboxamide]
37.2	C[C@H]1CN(C(=O)CN)CCC1NC(=O)c1cc(C2CC2)on1 (stereo partly drawn) [compound 49, 5-cyclopropyl-N-((3S)-1-glycyl-3-methylpiperidin-4-yl)isoxazole-3-carboxamide]
9.72	C[C@@H]1CN(C(=O)CN)CC[C@H]1NC(=O)c1cc(C2CC2)on1 [compound 50, 5-cyclopropyl-N-((3R,4R)-1-glycyl-3-methylpiperidin-4-yl)isoxazole-3-carboxamide]
12.7	C[C@@H]1CN(C(=O)CN)CC[C@@H]1NC(=O)c1cc(C2CC2)on1 [compound 51, 5-cyclopropyl-N-((3R,4S)-1-glycyl-3-methylpiperidin-4-yl)isoxazole-3-carboxamide]
32.5	C[C@H]1CC(NC(=O)c2cc(C3CC3)on2)CCN1C(=O)CN (stereo partly drawn) [compound 52, 5-cyclopropyl-N-((2S)-1-glycyl-2-methylpiperidin-4-yl)isoxazole-3-carboxamide]
0.862	C[C@@H]1C[C@@H](NC(=O)c2cc(C3CC3)on2)CCN1C(=O)CC1CCNCC1 [compound 53, 5-cyclopropyl-N-((2R,4S)-2-methyl-1-(2-(piperidin-4-yl)acetyl)piperidin-4-yl)isoxazole-3-carboxamide]
2.08	C[C@H]1C[C@@H](NC(=O)c2cc(C3CC3)on2)CCN1C(=O)CC1CCNCC1 [compound 54, 5-cyclopropyl-N-((2S,4S)-2-methyl-1-(2-(piperidin-4-yl)acetyl)piperidin-4-yl)isoxazole-3-carboxamide]
0.681	C[C@@H]1C[C@H](NC(=O)c2cc(C3CC3)on2)CCN1C(=O)CC1CCNCC1 [compound 55, 5-cyclopropyl-N-((2R,4R)-2-methyl-1-(2-(piperidin-4-yl)acetyl)piperidin-4-yl)isoxazole-3-carboxamide]
1.4	C[C@@H]1C[C@@H](NC(=O)c2cc(C3CC3)on2)CCN1C(=O)[C@H]1CC[C@H](N)CC1 [compound 58, N-((2R,4S)-1-((1r,4R)-4-aminocyclohexane-1-carbonyl)-2-methylpiperidin-4-yl)-5-cyclopropylisoxazole-3-carboxamide]
7.97	C[C@H]1C[C@@H](NC(=O)c2cc(C3CC3)on2)CCN1C(=O)[C@H]1CC[C@H](N)CC1 [compound 59, N-((2S,4S)-1-((1r,4S)-4-aminocyclohexane-1-carbonyl)-2-methylpiperidin-4-yl)-5-cyclopropylisoxazole-3-carboxamide]
1.41	C[C@H]1C[C@H](NC(=O)c2cc(C3CC3)on2)CCN1C(=O)[C@H]1CC[C@H](N)CC1 [compound 60, N-((2S,4R)-1-((1r,4S)-4-aminocyclohexane-1-carbonyl)-2-methylpiperidin-4-yl)-5-cyclopropylisoxazole-3-carboxamide]
15.3	C[C@H](N)C(=O)NC[C@@H](Cc1ccc(O)c(I)c1)C(=O)N1CCC(NC(=O)c2cc(C3CC3)on2)CC1 [compound 61, N-(1-((R)-3-((S)-2-aminopropanamido)-2-(4-hydroxy-3-iodobenzyl)propanoyl)piperidin-4-yl)-5-cyclopropylisoxazole-3-carboxamide]
1.33	C[C@H](N)C(=O)NC[C@H](Cc1ccc(O)c(I)c1)C(=O)N1CCC(NC(=O)c2cc(C3CC3)on2)CC1 [compound 62, N-(1-((S)-3-((S)-2-aminopropanamido)-2-(4-hydroxy-3-iodobenzyl)propanoyl)piperidin-4-yl)-5-cyclopropylisoxazole-3-carboxamide]
